The text below walks through data of ChEMBL document CHEMBL1139468, “Virtual screening of novel CB2 ligands using a comparative model of the human cannabinoid CB2 receptor” (J Med Chem, 2005).

For one experiment, the target named is Cannabinoid receptor 2 (Homo sapiens, UniProt P34972). The experiment can be described thus: Agonist activity at human CB2 receptor transfected in CHO cells by [35]GTPgamma binding assay. It counts as cell-based.
The target in experiment [1] is Cannabinoid receptor 1 (Rattus norvegicus) (UniProt P20272). Nature of the experiment: Activity at CB1 receptor in rat cerebellar membrane by [35]GTPgamma binding assay. It counts as functional, cell membranes. Conditions: Cerebellum.
Experiment [2] can be described thus: Inhibition of methionine gamma-lyase.
Experiment [3] addresses T1, Fatty-acid amide hydrolase 1 (Homo sapiens) (UniProt O00519).
T1 sequence (whole entry): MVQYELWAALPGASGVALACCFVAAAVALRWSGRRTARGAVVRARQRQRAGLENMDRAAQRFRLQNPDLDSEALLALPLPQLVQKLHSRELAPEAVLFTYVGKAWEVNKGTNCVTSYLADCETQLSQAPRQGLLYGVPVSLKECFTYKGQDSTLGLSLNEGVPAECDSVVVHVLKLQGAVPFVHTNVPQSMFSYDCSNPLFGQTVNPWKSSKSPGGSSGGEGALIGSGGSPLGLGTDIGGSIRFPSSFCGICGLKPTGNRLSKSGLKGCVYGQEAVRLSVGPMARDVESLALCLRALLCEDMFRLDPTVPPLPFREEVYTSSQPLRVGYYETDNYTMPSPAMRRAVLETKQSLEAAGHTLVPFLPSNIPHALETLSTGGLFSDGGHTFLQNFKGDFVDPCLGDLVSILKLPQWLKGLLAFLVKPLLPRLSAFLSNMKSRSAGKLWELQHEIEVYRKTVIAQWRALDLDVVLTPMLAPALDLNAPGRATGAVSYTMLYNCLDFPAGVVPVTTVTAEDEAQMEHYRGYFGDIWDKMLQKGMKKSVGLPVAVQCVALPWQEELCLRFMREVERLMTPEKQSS
The experiment can be described thus: Inhibition of FAAH.

The structures appear in SMILES notation. The source made the active and inactive calls. The rule behind the calls is not given here.

Sequence of Cannabinoid receptor 2 (P34972 whole entry): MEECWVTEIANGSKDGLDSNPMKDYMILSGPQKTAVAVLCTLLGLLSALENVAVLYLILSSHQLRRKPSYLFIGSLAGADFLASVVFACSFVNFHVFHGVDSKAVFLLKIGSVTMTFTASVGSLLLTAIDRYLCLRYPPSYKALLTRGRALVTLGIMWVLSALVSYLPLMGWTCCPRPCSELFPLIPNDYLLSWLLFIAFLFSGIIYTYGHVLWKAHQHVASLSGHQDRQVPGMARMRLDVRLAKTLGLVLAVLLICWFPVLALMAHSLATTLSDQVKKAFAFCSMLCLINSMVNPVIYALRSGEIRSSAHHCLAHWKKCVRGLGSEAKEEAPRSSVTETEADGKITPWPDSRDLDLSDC
Sequence of Cannabinoid receptor 1 (Rattus norvegicus) (P20272 whole entry): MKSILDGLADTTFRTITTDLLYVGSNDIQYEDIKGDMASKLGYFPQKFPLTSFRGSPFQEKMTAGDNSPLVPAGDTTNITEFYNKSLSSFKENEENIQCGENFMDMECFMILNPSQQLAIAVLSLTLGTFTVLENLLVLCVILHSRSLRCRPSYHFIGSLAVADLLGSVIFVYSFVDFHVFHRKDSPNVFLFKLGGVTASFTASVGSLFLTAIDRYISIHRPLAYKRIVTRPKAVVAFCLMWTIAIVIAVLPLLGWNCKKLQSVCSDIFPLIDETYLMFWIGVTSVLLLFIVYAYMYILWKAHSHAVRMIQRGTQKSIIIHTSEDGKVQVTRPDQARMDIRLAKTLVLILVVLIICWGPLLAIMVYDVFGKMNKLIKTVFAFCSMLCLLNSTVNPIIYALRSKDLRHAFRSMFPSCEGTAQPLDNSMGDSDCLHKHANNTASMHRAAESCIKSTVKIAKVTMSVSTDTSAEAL

`CCCCCCC(C)(C)c1cc(O)c2c(c1)OC(C)(C)[C@H]1CC=C(CO)C[C@H]21` gave an Emax at Cannabinoid receptor 2 of 103%.
For `O=C(c1cccc(C(F)(F)F)c1)c1nccc2ccccc12`, the outcome in experiment [1], in experiment [2] and in experiment [3] was inactive. At Cannabinoid receptor 2, this compound gave an EC50 of 5.01 µM. In addition, the Emax at Cannabinoid receptor 2 amounted to 53%.
